This passage reports EC50 results from US9278968B2, “Imidazopyridine compounds” (ASTELLAS PHARMA INC., priority 2012, dated 2016).

The assay addresses human purified sGC (heterodimer of sGCα1 and sGCβ1) (Homo sapiens (Human), UniProt Q02108+Q02153). In words: sGC activation test (cGMP produced, HTRF). In kind it is biochemical. The conditions noted are these: maximum activity of Preparation Example 200 compound (maximum 100 μM) taken as 100%; with SNP; read-out: EC50 (concentration giving 50% of maximum activity). How it is done:
The activity of sGC was evaluated by measuring the amount of cGMP produced by human purified sGC.
Using an sGCα 1 gene (NCBI accession No. BC028384.2) and an sGCβ1 gene (NCBI accession No. BC047620.1), an N-terminal FLAG tag-fused sGCα1 and an sGCβ1 expression baculovirus were prepared. These viruses were transfected into insect cells Sf9 (Cat. No. 11496-015, Gibco) to express a protein. From the cell lysates of the insect cells, heterodimers of the N-terminal FLAG tag-fused sGCα1 and sGCβ1 were purified with an M2 Affinity Gel (Sigma-Aldrich, Inc.) to obtain a human sGC.
An Example compound was dissolved in DMSO and diluted 20-fold with ultrapure water. 2 μL of the diluted Example compound solution (maximum concentration of 100 μM), 2 μL of a substrate solution [0.5 μM triethanolamine buffer solution, 0.03 μM dithiothreitol, 0.01 μM GTP, 0.04 μM MgCl2, and 0.03 μM sodium nitroprusside (SNP)], and 6 μL of a human enzyme suspension were added to 384-well plates (manufactured by Greiner Bio-One), and incubated at room temperature for one hour. The measurement of the amount of cGMP was carried out, using an HTRF reagent (Cisbio).
The sGC activation action of the Example compound was calculated as an Example compound concentration which gives 50% of a maximum activity (EC50), in which the maximum activity by the addition of a compound shown in Preparation Example 200, 8-(cyclohexylmethoxy)-N-[(1R)-2-hydroxy-1-phenylethyl]-2-methylimidazo[1,2-a]pyridine-3-carboxamide hydrochloride (maximum 100 μM), is taken as 100%. Further, the maximum activity of sGC with the addition of 8-(cyclohexylmethoxy)-N-[(1R)-2-hydroxy-1-phenylethyl]-2-methylimidazo[1,2-a]pyridine-3-carboxamide hydrochloride is 10-fold or more relative to the sGC activation without the addition of the compound, and it is recognized that the compound has a good sGC activating action. […] The test results of some Example compounds that are the compounds of the formula (I) of the present invention are shown below. Further, in Tables, Ex. represents Example number.

human purified sGC (heterodimer of sGCα1 and sGCβ1), sequence (Q02108 whole entry): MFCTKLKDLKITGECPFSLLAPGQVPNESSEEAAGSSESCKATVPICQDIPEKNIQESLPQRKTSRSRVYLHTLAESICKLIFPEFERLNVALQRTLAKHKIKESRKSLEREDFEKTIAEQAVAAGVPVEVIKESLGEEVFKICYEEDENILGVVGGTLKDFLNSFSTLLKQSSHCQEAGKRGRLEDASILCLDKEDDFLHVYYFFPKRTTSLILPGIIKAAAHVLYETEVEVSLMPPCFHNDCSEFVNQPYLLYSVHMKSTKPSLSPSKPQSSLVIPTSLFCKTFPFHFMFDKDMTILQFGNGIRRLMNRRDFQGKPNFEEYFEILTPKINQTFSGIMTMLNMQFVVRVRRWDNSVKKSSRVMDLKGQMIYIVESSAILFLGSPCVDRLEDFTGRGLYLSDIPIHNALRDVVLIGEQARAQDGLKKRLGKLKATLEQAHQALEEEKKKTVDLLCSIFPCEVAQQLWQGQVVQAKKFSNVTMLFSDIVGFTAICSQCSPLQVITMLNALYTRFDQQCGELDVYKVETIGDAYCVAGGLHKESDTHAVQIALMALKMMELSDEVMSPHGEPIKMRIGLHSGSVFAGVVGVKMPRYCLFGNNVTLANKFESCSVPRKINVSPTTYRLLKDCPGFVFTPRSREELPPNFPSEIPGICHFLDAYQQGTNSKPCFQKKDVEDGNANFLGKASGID
human purified sGC (heterodimer of sGCα1 and sGCβ1), sequence (Q02153 whole entry): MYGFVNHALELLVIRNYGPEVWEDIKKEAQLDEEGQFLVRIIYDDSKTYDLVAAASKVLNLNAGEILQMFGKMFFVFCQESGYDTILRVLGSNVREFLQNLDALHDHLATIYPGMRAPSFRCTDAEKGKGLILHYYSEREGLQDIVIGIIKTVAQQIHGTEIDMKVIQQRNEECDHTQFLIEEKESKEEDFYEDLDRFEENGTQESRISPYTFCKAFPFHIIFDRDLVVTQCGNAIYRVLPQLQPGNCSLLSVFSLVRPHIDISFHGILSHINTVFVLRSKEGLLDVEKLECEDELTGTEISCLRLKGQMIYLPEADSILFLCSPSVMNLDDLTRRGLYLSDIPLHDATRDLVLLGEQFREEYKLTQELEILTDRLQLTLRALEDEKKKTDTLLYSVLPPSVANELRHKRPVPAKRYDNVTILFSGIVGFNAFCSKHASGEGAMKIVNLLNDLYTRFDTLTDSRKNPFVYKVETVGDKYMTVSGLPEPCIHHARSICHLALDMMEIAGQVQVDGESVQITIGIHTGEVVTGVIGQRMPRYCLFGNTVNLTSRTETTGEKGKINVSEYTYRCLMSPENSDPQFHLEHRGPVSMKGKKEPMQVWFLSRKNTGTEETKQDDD

On to `Cc1nc2c(OCc3c(F)cccc3F)cccn2c1C(=O)N[C@]1(c2ccccc2)CC[C@@H](O)[C@H]1O` (racemic) [Example 27], for which the EC50 stood at 12 µM.

As to `Cc1nc2c(OCc3c(F)cccc3F)cccn2c1C(=O)N[C@]1(c2ccccc2)CC[C@H](O)[C@H]1O` (racemic) [Example 28], the EC50 was 13 µM.

Consider `Cc1nc2c(OCc3c(F)cccc3F)cccn2c1C(=O)NCc1cccnc1[C@@H](O)[C@@H](C)O` (racemic) [Example 89], for which the EC50 was found to be 11 µM.

Take `Cc1nc2c(OCc3c(F)cccc3F)cccn2c1C(=O)NCc1ccncc1[C@@H](O)[C@@H](C)O` (racemic) [Example 90]: the EC50 turned out to be 9.8 µM.

Turning to `Cc1nc2c(OCc3c(F)cccc3F)cccn2c1C(=O)N[C@@H](C)c1ccccc1[C@@H](O)CO` (stereo in doubt) [Example 59], the EC50 amounted to 1.9 µM.

In the case of `Cc1nc2c(OCC3CCCCC3)cccn2c1C(=O)N[C@@](C)(CO)c1cccc(C(=O)O)c1` [Example 3, 3-[(2R)-2-({ [8-(cyclohexylmethoxy)-2-methylimidazo[1,2-a]pyridin-3-yl]carbonyl}amino)-1-hydroxypropan-2-yl]benzoic acid], the EC50 worked out at 0.72 µM.

For `Cc1nc2c(OCc3c(F)cccc3F)cccn2c1C(=O)NC(C)(CO)c1ccc(CO)cc1` (centres unmarked) [Example 4, 8-[(2,6-difluorobenzyl)oxy]-N-{1-hydroxy-2-[4-(hydroxymethyl)phenyl]propan-2-yl}-2-methylimidazo[1,2-a]pyridine-3-carboxamide], the EC50 is 1.4 µM.

Consider `Cc1nc2c(OCc3c(F)cccc3F)cccn2c1C(=O)NCc1ccccc1C(O)CO` (centres unmarked) [Example 5, 8-[(2,6-difluorobenzyl)oxy]-N-[2-(1,2-dihydroxyethyl)benzyl]-2-methylimidazo[1,2-a]pyridine-3-carboxamide], for which the EC50 amounted to 6.4 µM.

Consider `Cc1nc2c(OCc3c(F)cccc3F)cccn2c1C(=O)N[C@@](C)(CO)c1cccc(C(N)=O)c1` [Example 12], for which the EC50 amounted to 0.78 µM.

With `Cc1nc2c(OCC3CCCCC3)cccn2c1C(=O)N[C@@](C)(CO)c1cccc(C(N)=O)c1` [Example 13], the EC50 was 0.84 µM.

Regarding `Cc1nc2c(OCc3c(F)cccc3F)cccn2c1C(=O)NC(C)(CO)c1ncccn1` (centres unmarked) [Example 14], the EC50 is 4.4 µM.

For the compound `Cc1nc2c(OCc3ccccc3F)cccn2c1C(=O)N[C@@](C)(CO)c1cccc(CO)c1` [Example 15], the EC50 turned out to be 2.8 µM.

As to `Cc1cnc([C@H](CO)NC(=O)c2c(C)nc3c(OCc4c(F)cccc4F)cccn23)s1` [Example 16], the EC50 was 2.1 µM.

In the case of `Cc1nc2c(OCc3c(F)cccc3F)cccn2c1C(=O)N[C@@](C)(CO)c1nc(CO)cs1` [Example 21], the EC50 turned out to be 4 µM.

For the compound `Cc1nc2c(OCc3ncccc3F)cccn2c1C(=O)N[C@@](C)(CO)c1ccccc1F` [Example 23], the EC50 was 9.8 µM.

Consider `Cc1ncc([C@H](CO)NC(=O)c2c(C)nc3c(OCc4c(F)cccc4F)cccn23)s1` [Example 24], for which the EC50 was 3.6 µM.

`Cc1nc2c(OCc3c(F)cccc3F)cccn2c1C(=O)N[C@@H](CO)c1nnn(C)n1` [Example 26]: the EC50 amounted to 24 µM.

Consider `Cc1nc2c(OCC3CCCCC3)cccn2c1C(=O)N[C@@H](CO)c1nnnn1C` [Example 29], for which the EC50 was determined as 17 µM.

For the compound `Cc1nc2c(OCc3c(F)cccc3F)cccn2c1C(=O)NCc1ccccc1[C@H](O)[C@H](C)O` [Example 30], the EC50 is 5.6 µM.

For `Cc1nc2c(OCc3c(F)cccc3F)cccn2c1C(=O)NCc1ccccc1[C@@H](O)[C@H](C)O` [Example 32], the EC50 stood at 8.2 µM.

Regarding `Cc1nc2c(OCc3c(F)cccc3F)cccn2c1C(=O)NCc1ccccc1[C@H](O)[C@@H](C)O` [Example 33], the EC50 is 7.4 µM.

On to `Cc1nc2c(OCC3CCCCC3)cccn2c1C(=O)N[C@@H](CO)c1nnn(C)n1` [Example 34], for which the EC50 amounted to 11 µM.

For the compound `Cc1nnc([C@H](CO)NC(=O)c2c(C)nc3c(OCc4c(F)cccc4F)cccn23)o1` [Example 42], the EC50 came out at 33 µM.

Turning to `Cc1nnc([C@H](CO)NC(=O)c2c(C)nc3c(OCC4CCCCC4)cccn23)o1` [Example 43], the EC50 is 14 µM.

Regarding `CCc1nnc([C@H](CO)NC(=O)c2c(C)nc3c(OCc4c(F)cccc4F)cccn23)o1` [Example 44], the EC50 is 16 µM.

Take `CCc1nnc([C@H](CO)NC(=O)c2c(C)nc3c(OCC4CCCCC4)cccn23)o1` [Example 45]: the EC50 turned out to be 9.1 µM.

`Cc1nc2c(OCc3c(F)cccc3F)cccn2c1C(=O)N[C@@H](CO)c1nnc(C2CC2)o1` [Example 46]: the EC50 worked out at 20 µM.

On to `Cc1nc2c(OCC3CCCCC3)cccn2c1C(=O)N[C@@H](CO)c1nnc(C2CC2)o1` [Example 47], for which the EC50 amounted to 13 µM.

Take `Cc1nc2c(OCc3c(F)cccc3F)cccn2c1C(=O)NC(C)(CO)c1cncnc1` (centres unmarked) [Example 48]: the EC50 came out at 2.7 µM.

As to `Cc1nc2c(OCc3c(F)cccc3F)cccn2c1C(=O)NC(CO)c1cnn(C)c1` (centres unmarked) [Example 49], the EC50 is 25 µM.

`Cc1nc2c(OCc3c(F)cccc3F)cccn2c1C(=O)NC(C)(CO)c1cnn(C)c1` (centres unmarked) [Example 50]: the EC50 amounted to 7.9 µM.

Take `Cc1nc2c(OCc3ccccc3F)cccn2c1C(=O)NC(C)(CO)c1ccc(CO)cc1` (centres unmarked) [Example 51]: the EC50 was determined as 12 µM.

As for `Cc1nc2c(OCc3c(F)cccc3F)cccn2c1C(=O)NC(CO)(CO)c1cccc(CO)c1` [Example 53], the EC50 worked out at 1.7 µM.

With `Cc1nc2c(OCc3c(F)cccc3F)cccn2c1C(=O)NC(CO)(CO)c1cccc(F)c1` [Example 55], the EC50 is 2 µM.

As to `Cc1ccc(C(CO)(CO)NC(=O)c2c(C)nc3c(OCc4c(F)cccc4F)cccn23)nc1` [Example 56], the EC50 was found to be 8.5 µM.

Turning to `Cc1nc2c(OCc3c(F)cccc3F)cccn2c1C(=O)NC(CO)(CO)c1ccc(F)cn1` [Example 57], the EC50 came to 3.7 µM.

Take `COc1ccc(C(CO)(CO)NC(=O)c2c(C)nc3c(OCc4c(F)cccc4F)cccn23)cn1` [Example 58]: the EC50 came to 3.3 µM.

As to `Cc1cnc(C(CO)(CO)NC(=O)c2c(C)nc3c(OCc4c(F)cccc4F)cccn23)o1` [Example 60], the EC50 amounted to 12 µM.

With `Cc1nc2c(OCc3cccc(F)c3F)cccn2c1C(=O)NC(CO)(CO)c1ccc(F)cc1` [Example 61], the EC50 turned out to be 6.4 µM.

Consider `Cc1ccnc(C(CO)(CO)NC(=O)c2c(C)nc3c(OCc4c(F)cccc4F)cccn23)c1` [Example 62], for which the EC50 is 6.5 µM.

As for `Cc1nc2c(OCc3c(F)cccc3F)cccn2c1C(=O)NC(CO)(CO)c1nnn(C)n1` [Example 64], the EC50 is 30 µM.

In the case of `Cc1nc2c(OCC3CCCCC3)cccn2c1C(=O)NC(CO)(CO)c1nnn(C)n1` [Example 66], the EC50 is 16 µM.

Take `Cc1nc2c(OCC3CCCCC3)cccn2c1C(=O)N[C@]1(c2ccccn2)C[C@@H](O)[C@@H](O)C1` [Example 68]: the EC50 was determined as 14 µM.

As for `Cc1nc2c(OCc3c(F)cccc3F)cccn2c1C(=O)NC(CO)(CO)c1cnn(C)c1` [Example 71], the EC50 came to 21 µM.

As for `Cc1nc2c(OCC3CCCCC3)cccn2c1C(=O)NC(C)(CO)c1nnn(C)n1` (centres unmarked) [Example 73a], the EC50 is 6.4 µM.

Regarding `COCCn1nnc(C(C)(CO)NC(=O)c2c(C)nc3c(OCc4c(F)cccc4F)cccn23)n1` (centres unmarked) [Example 74], the EC50 worked out at 12 µM.

Turning to `Cc1nc2c(OCc3c(F)cccc3F)cccn2c1C(=O)NC(C)(CO)c1nnn(CCO)n1` (centres unmarked) [Example 75], the EC50 came to 9.1 µM.

Consider `Cc1ncc(C(CO)(CO)NC(=O)c2c(C)nc3c(OCc4c(F)cccc4F)cccn23)s1` [Example 78], for which the EC50 came to 5.1 µM.

As for `Cc1nc2c(OCc3c(F)cccc3F)cccn2c1C(=O)NC(C)(C)c1cccc(C(N)=O)c1` [Example 80], the EC50 was 7.1 µM.

For the compound `Cc1nc2c(OCc3cccc(F)c3F)cccn2c1C(=O)NC(C)(CO)c1nnn(C)n1` (centres unmarked) [Example 82], the EC50 was 21 µM.

Take `Cc1nnc(C(C)(CO)NC(=O)c2c(C)nc3c(OCC4CCCCC4)cccn23)o1` (centres unmarked) [Example 84]: the EC50 turned out to be 7.1 µM.

As for `[C-]#[N+]c1cccc([C@](C)(CO)NC(=O)c2c(C)nc3c(OCC4CCCCC4)cccn23)c1` [Example 85], the EC50 came to 2.9 µM.

On to `CCc1nnc(C(C)(CO)NC(=O)c2c(C)nc3c(OCC4CCCCC4)cccn23)o1` (centres unmarked) [Example 86], for which the EC50 was 5.6 µM.

Take `Cc1nc2c(OCc3c(F)cccc3F)cccn2c1C(=O)NC(C)(CO)c1nnc(C2CC2)o1` (centres unmarked) [Example 87]: the EC50 was determined as 5.9 µM.

For the compound `Cc1nc2c(OCC3CCCCC3)cccn2c1C(=O)NC(C)(CO)c1nnc(C2CC2)o1` (centres unmarked) [Example 88], the EC50 was 5.3 µM.

As to `Cc1nc2c(OCC3CCCCC3)cccn2c1C(=O)NC(C)(CO)c1nnc(C(F)(F)F)o1` (centres unmarked) [Example 92], the EC50 amounted to 1.4 µM.
